Source: publication PMC4000049, “Genome segment 5 of Antheraea mylitta cytoplasmic polyhedrosis virus encodes a bona fide guanylyltransferase” (Virology Journal, 2014)

System: T1, p65 (AmCPV S5-encoded guanylyltransferase)
T1 construct: entire S5 ORF (nt 266 to 2086; 606 residues, ~65 kDa), His-tagged in pQE-30, E. coli M15, Ni-NTA
Assay: pyrophosphatase-coupled malachite green assay of capping, replot of double-reciprocal plots
Format: biochemical, Antheraea mylitta cypovirus 4
Details: co-substrate 5'-diphosphate-ended viral RNA (50 to 150 nM), 5 mM MgCl2, 5 mM DTT, 50 mM Tris-HCl pH 7.5, 25°C; ping-pong; covalent GMP intermediate

With `Nc1nc2c(ncn2[C@@H]2O[C@H](COP(=O)(O)OP(=O)(O)OP(=O)(O)O)[C@@H](O)[C@H]2O)c(=O)[nH]1` [GTP] the Km was 34.2 µM.
